Data reported in patent US20190365776A1, “THERAPEUTIC AGENT FOR OCULAR FUNDUS DISEASE” (KYUSHU UNIVERSITY, NATIONAL UNIVERSITY CORPORATION, priority 2013, published 2019).

Legend:
[1] = tested on: VEGF-induced neovascularization; conditions: Non-Patent Documents 2 and 3; cited from earlier work
[2] = tested on: model mice with hyperoxia-induced retinopathy; conditions: intravitreally administered; Non-Patent Document 6; cited from earlier work
[3] = tested on: mice OIR (Oxygen-Induced Retinopathy) model; experiment: Mice OIR (oxygen-induced retinopathy) model, flat-mounted retina; assay type: in vivo, C57BL/6JJcl mice; conditions: 0.4% solution, ocular instillation 20 μL three times a day, day 12 to day 17 after birth, flat mount
Description: The effectiveness of (S)-(−)-1-(4-fluoro-5-isoquinolinesulfonyl)-2-methyl-1,4-homopiperazine (compound 1) in a mice OIR model commonly used as a model of ischemic retinopathy such as diabetic retinopathy was examined in the following manner. Compound 1 solutions: 0.4% solution, 0.8% solution (instillation volume: 20 μL) Fasudil solution: 0.4% solution (instillation volume: 20 μL) Test animals: C57BL/6JJcl mice (sex: male, 8 to 14 mice per group) C57BL/6JJcl mice born on the same day were reared in a 75%-oxygen environment from day 7 after birth, and were then transferred to a normal indoor environment on day 12 after birth to start administration by ocular instillation. Test groups were a saline instillation group (control), a 0.4% compound 1 solution instillation group, a 0.8% compound 1 solution instillation group, and a 0.4% fasudil solution instillation group, and saline, the compound 1 solution, or the fasudil solution was administered by ocular instillation three times a day. On day 17 after birth, ischemic retinal areas (non-perfused areas) and neovascular areas were quantified for evaluation by flat-mounting or fluorescein fundus angiography. More specifically, 1 g/kg of pentobarbital (Nembutal) was administered intraperitoneally for euthanasia under deep anesthesia, and then both eyeballs were excised and fixed with 4% paraformaldehyde (PFA) at 37° C. for 1 hour, and the corneal limbus was circumferentially incised to remove the cornea and iris from the eyeball. Then, after fixation with 4% PFA at 37° C. for 1 hour, the lens, sclera, and choroid were removed, and the eye cup including the retina was isolated. Further, the retina was fixed with 4% PFA at 37° C. for 3 hours, washed with PBS three times (15 min per wash, 37° C.), dehydrated (methanol 50% 100%, 10 min per methanol treatment, 37° C.), washed with PBS three times (15 min per wash, 37° C.), and blocked with Blocking Buffer (1% BSA, 0.5% Triton-X in PBS) for 60 minutes (37° C.). Then, the retina was treated with a primary antibody (0.7% FITC-conjugates Anti-lectin Ab in PBS, 4° C., overnight) and washed with PBS three times (15 min per wash, 37° C.). Then, 4 to 6 cuts were radially made in the eye cup, and the flat-mounted retina was covered with Crystal Mount. Then, the image of the flat-mounted retina was taken with a fluorescence microscope (BZ-9000, KEYENCE Corp, Osaka, Japan), and the proportion of the non-perfused area to the entire retina and the proportion of the neovascular area to the entire retina were calculated by the following formulas in NIH image J software. The thus obtained values were converted to relative values by regarding the obtained values of the saline instillation group (control) as 100%, and statistical analysis was performed by Wilcoxon test. Non-perfused area=area of avascular region/area of entire retina Neovascular area=area of neovascular region/area of entire retina

[4] = tested on: diabetic model rats; conditions: intravitreally administered; Non-Patent Documents 4 and 5; cited from earlier work

SMILES: C[C@@H](N)[C@H]1CC[C@H](C(=O)Nc2ccncc2)CC1 [Y-27632]
- effect on VEGF-induced neovascularization [1]: effect of inhibiting VEGF-induced neovascularization
- effect on retinal neovascularization [2]: effect of suppressing retinal neovascularization

SMILES: O=S(=O)(c1cccc2cnccc12)N1CCCNCC1 [fasudil, reference compound]
- effect on VEGF-induced neovascularization [1]: effect of inhibiting VEGF-induced neovascularization
- relative value of the neovascular area (saline instillation group = 100%) [3]: 102.2%
- relative value of the non-perfused area (saline instillation group = 100%) [3]: 107.7%
- effect on endothelial cells in diabetic model rats [4]: effect of protecting endothelial cells
